Assay results published in US12195427B2, “MASP-2 inhibitors and methods of use” (priority 2018, dated 2025).

Biological target: MASP-2 CCP2-SP (Homo sapiens (Human), UniProt O00187)
Assay: MASP-2 co-crystallization, X-ray crystallography and structure analysis (H-bonds, van der Waals contacts);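 for Ligand-pharmacophore element distance, pharmacophore element C2: distance from averaged pharmacophore element to bound ligand; missing value means element absent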;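 for Ligand-pharmacophore element distance, pharmacophore element C3: distance from averaged pharmacophore element to bound ligand; missing value means element absent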;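 for Ligand-pharmacophore element distance, pharmacophore element C4: distance from averaged pharmacophore element to bound ligand; missing value means element absent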;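 for Ligand-pharmacophore element distance, pharmacophore element C5: distance from averaged pharmacophore element to bound ligand; missing value means element absent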
Design: van der Waals contact distance, MASP-2 HIS 483 atom CD2 / van der Waals contact distance, MASP-2 HIS 483 atom NE2 / van der Waals contact distance, SER 654 C to compound atom / van der Waals contact distance, SER 654 O to compound atom / van der Waals contact distance, TRP 655 C to compound atom / van der Waals contact distance, MASP-2 GLY 528 atom CA / van der Waals contact distance TRP 655 atom CZ3 / van der Waals contact distance TRP 655 atom N / van der Waals contact distance TRP 655 atom CE3 / van der Waals contact distance GLY 656 atom C / van der Waals contact distance GLY 656 atom CA / van der Waals contact distance GLY 656 atom O / van der Waals contact distance, MASP-2 TYR 607 atom CD1 / van der Waals contact distance, MASP-2 PRO 606 atom O / d(C3,CA1) / d(CA1,N1)2 / d(H4,O1) / d(H4,O2) / d(O1,O2) / d(CA1,O2) / d(CA6,O1) / d(CA6,O2) / d(CA1,C5) / d(O2,H3) / d(N2,C2) / d(CA5,N2) / d(N2,C4) / d(N2,C6) / d(N2,CA3) / d(N2,O3) / d(O4,H2): unit not given beside the values
Conditions: for Ligand-pharmacophore element distance, pharmacophore element C2 / Ligand-pharmacophore element distance, pharmacophore element C3 / Ligand-pharmacophore element distance, pharmacophore element C4 / Ligand-pharmacophore element distance, pharmacophore element C5 / Ligand-pharmacophore element distance, pharmacophore element C6 / Ligand-pharmacophore element distance, pharmacophore element C7 / Ligand-pharmacophore element distance, pharmacophore element CA1 / Ligand-pharmacophore element distance, pharmacophore element CA2 / Ligand-pharmacophore element distance, pharmacophore element CA3 / Ligand-pharmacophore element distance, pharmacophore element CA4 / Ligand-pharmacophore element distance, pharmacophore element CA5 / Ligand-pharmacophore element distance, pharmacophore element CA6: Table A4-1; for d(N2,C2) / d(N2,CA2) / d(O2,H3) / d(O2,N2): Table A5-2 pharmacophore distance, S3/S4 region; for a(O2, N2, C2) / a(O2, N2, CA2) / a(O1, O2, H3) / a(O1, O2, N2): Table A6-2 pharmacophore angle; for Pharmacophore protein distance to MET_658 (first MET_658 column) / Pharmacophore protein distance to MET_658 (second MET_658 column) / Pharmacophore protein distance to GLY_528 / Pharmacophore protein distance to PHE_529 / Pharmacophore protein distance to PRO_608 / Pharmacophore protein distance to SER_611 / Pharmacophore protein distance to TRP_655: Table A8-6, nearest protein atom in cell to the left; for Pharmacophore protein distance to MET_658 (first MET_658 column): 6th residue column; for Pharmacophore protein distance to MET_658 (second MET_658 column): 9th residue column; for Pharmacophore protein distance to TRP_655: pharmacophore elements C6, CA3, O3, H1; for a(C5, CA1, O1) / a(CA1, O1, O2) / a(CA1, O4, H2) / a(O1, CA1, O4) / a(O1, O2, H4): Table A6-1 pharmacophore angle; for Pharmacophore torsion angle a(C5, CA1, O1, H4) / Pharmacophore torsion angle a(H4, O1, O2, H3) / Pharmacophore torsion angle a(H4, O1, O2, N2) / Pharmacophore torsion angle a(O1, H4, O2, CA1) / Pharmacophore torsion angle a(O1, O2, N2, C2): Table A7-1; for Pharmacophore torsion angle a(C5, CA1, O1, H4) / Pharmacophore torsion angle a(H4, O1, O2, H3) / Pharmacophore torsion angle a(H4, O1, O2, N2) / Pharmacophore torsion angle a(O1, H4, O2, CA1) / Pharmacophore torsion angle a(O1, O2, N2, C2) / Pharmacophore torsion angle a(O1, O2, N2, CA2): between pharmacophore elements of the bound compound; for Pharmacophore torsion angle a(O1, O2, N2, CA2): Table A7-2
Description: This example illustrates the preparation of recombinant MASP-2 protein, based on UniProt O00187, human mannan-binding lectin serine protease 2. Expression constructs for human MASP-2 CCP2-SP and CCP2-SP-6HIS were generated for recombinant expression in E. coli cells.
Typically, crystallization hits were obtained by screening against […] 96-well crystallization reagent kits (GRAS6, GRAS2, Hampton Research; MORPHEUS, Molecular Dimensions; Wizard 1&2 Cryo, Rigaku Reagents) and crystal growth was inspected by optical microscopy. Crystals were used directly or further optimized for X-ray diffraction. Crystals were captured with cryogenic loops and dipped into liquid nitrogen directly or cryoprotected with a 20% glycerol in crystallization formulation before flash-cooling in liquid nitrogen.
Thereafter crystals are transferred once or twice for soaking within the crystallization solution containing the MASP-2 inhibitor.
Crystals were diffracted with synchrotron X-rays of […] and X-ray diffraction datasets were collected at beamlines SSRL BL9-2, BL14-1, BL12-2 as well as ALS sector 5 using Dectris Pilatus and Eiger detectors. Structures were determined by molecular replacement using portions of the structure 1Q3X as search models and partially refined with Buster 2.10.2 or Refmac 5.8. […] When multiple ligand poses were observed, for instance arising from multiple molecules in the asymmetric unit or refined dual poses within the same molecule, only one pose was selected and analyzed.
LigPlot+ calls these ‘nonbonded contacts’ or ‘hydrophobic contacts’. Despite the name, there are atom pairings that include possible H-bonds. Thus, in some instances, the Table A2 also contains H-bond interactions.

[1] = Table A5-1 pharmacophore: distance between elements, S2/S1 region

Sequence of MASP-2 CCP2-SP (O00187 445-686): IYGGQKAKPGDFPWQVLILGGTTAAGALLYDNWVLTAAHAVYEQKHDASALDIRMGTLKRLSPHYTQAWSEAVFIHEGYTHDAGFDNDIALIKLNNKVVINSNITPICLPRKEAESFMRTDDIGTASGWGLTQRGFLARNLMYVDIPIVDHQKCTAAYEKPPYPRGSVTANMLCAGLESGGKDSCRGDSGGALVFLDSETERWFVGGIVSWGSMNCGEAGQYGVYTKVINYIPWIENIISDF
Sequence of MASP-2 CCP2-SP (O00187 364-432 partner): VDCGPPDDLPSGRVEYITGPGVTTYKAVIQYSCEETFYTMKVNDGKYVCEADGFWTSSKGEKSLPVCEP

## C[C@H](NC(=O)[C@H](N)CCCc1ccccc1)C(=O)NCc1ccc(C(=N)N)cc1.Cl.Cl [1042_3]
  Ligand-pharmacophore element distance, pharmacophore element C2: 2.05
  Ligand-pharmacophore element distance, pharmacophore element C3: 0
  Ligand-pharmacophore element distance, pharmacophore element C4: 0
  Ligand-pharmacophore element distance, pharmacophore element C5: 0
  Ligand-pharmacophore element distance, pharmacophore element C6: 0
  Ligand-pharmacophore element distance, pharmacophore element C7: 0
  Ligand-pharmacophore element distance, pharmacophore element CA1: 0.5
  Ligand-pharmacophore element distance, pharmacophore element CA2: 1.65
  Ligand-pharmacophore element distance, pharmacophore element CA3: 0
  Ligand-pharmacophore element distance, pharmacophore element CA4: 0
  Ligand-pharmacophore element distance, pharmacophore element CA5: 0
  Ligand-pharmacophore element distance, pharmacophore element CA6: 0
  d(N2,C2): 3.55
  d(N2,CA2): 6.60
  d(O2,H3): 6.75
  d(O2,N2): 4.11
  a(O2, N2, C2): 129.44
  a(O2, N2, CA2): 145.75
  Pharmacophore protein distance to MET_658 (first MET_658 column): 2.74
  Pharmacophore protein distance to MET_658 (second MET_658 column): 4.20
  Pharmacophore protein distance to GLY_528: 2.99
  Pharmacophore protein distance to PHE_529: 2.42
  Pharmacophore protein distance to PRO_608: 4.06
  Pharmacophore protein distance to SER_611: 2.32
  Pharmacophore protein distance to TRP_655: 3.21
[1]
  d(CA1,N1): 3.63
  d(CA1,O2): 4.54
  d(H4,O2): 4.90

## C[C@H](NC(=O)[C@H]1C[C@@H](c2ccccc2)CCN1)C(=O)NCc1cc(Cl)ccc1O.Cl [1078_1]
  Ligand-pharmacophore element distance, pharmacophore element C2: 0.69
  Ligand-pharmacophore element distance, pharmacophore element C3: 0
  Ligand-pharmacophore element distance, pharmacophore element C4: 0
  Ligand-pharmacophore element distance, pharmacophore element C5: 0.4
  Ligand-pharmacophore element distance, pharmacophore element C6: 0
  Ligand-pharmacophore element distance, pharmacophore element C7: 0
  Ligand-pharmacophore element distance, pharmacophore element CA1: 1.58
  Ligand-pharmacophore element distance, pharmacophore element CA2: 0.48
  Ligand-pharmacophore element distance, pharmacophore element CA3: 0
  Ligand-pharmacophore element distance, pharmacophore element CA4: 0
  Ligand-pharmacophore element distance, pharmacophore element CA5: 0
  Ligand-pharmacophore element distance, pharmacophore element CA6: 0
  d(N2,C2): 1.48
  d(N2,CA2): 5.74
  d(O2,H3): 2.93
  d(O2,N2): 2.77
  a(C5, CA1, O1): 160.22
  a(CA1, O1, O2): 111.94
  a(CA1, O4, H2): 126.79
  a(O1, CA1, O4): 68.03
  a(O1, O2, H4): 103.21
  a(O1, O2, H3): 141.96
  a(O1, O2, N2): 145.93
  a(O2, N2, C2): 121.70
  a(O2, N2, CA2): 154.68
  Pharmacophore torsion angle a(C5, CA1, O1, H4): 25.08
  Pharmacophore torsion angle a(H4, O1, O2, H3): −119.94
  Pharmacophore torsion angle a(H4, O1, O2, N2): −112.97
  Pharmacophore torsion angle a(O1, H4, O2, CA1): −60.12
  Pharmacophore torsion angle a(O1, O2, N2, C2): 138.25
  Pharmacophore torsion angle a(O1, O2, N2, CA2): 140.46
  Pharmacophore protein distance to MET_658 (first MET_658 column): 2.97
  Pharmacophore protein distance to MET_658 (second MET_658 column): 3.50
  Pharmacophore protein distance to GLY_528: 3.66
  Pharmacophore protein distance to PHE_529: 3.30
  Pharmacophore protein distance to PRO_608: 3.85
  Pharmacophore protein distance to SER_611: 2.41
  Pharmacophore protein distance to TRP_655: 3.68
[1]
  d(CA1,C5): 3.12
  d(CA1,O1): 4.56
  d(CA1,O2): 4.72
  d(CA1,O4): 2.75
  d(H4,O1): 2.29
  d(H4,O2): 2.61
  d(O1,O2): 3.05
  d(O4,H2): 0.97

## C[C@H](NC(=O)[C@H]1C[C@@H](c2ccccc2)CCN1)C(=O)NCc1cc(Cl)ccc1O.Cl [1078_2]
  Ligand-pharmacophore element distance, pharmacophore element C2: 0.61
  Ligand-pharmacophore element distance, pharmacophore element C3: 0
  Ligand-pharmacophore element distance, pharmacophore element C4: 0
  Ligand-pharmacophore element distance, pharmacophore element C5: 0.46
  Ligand-pharmacophore element distance, pharmacophore element C6: 0
  Ligand-pharmacophore element distance, pharmacophore element C7: 0
  Ligand-pharmacophore element distance, pharmacophore element CA1: 1.55
  Ligand-pharmacophore element distance, pharmacophore element CA2: 0.61
  Ligand-pharmacophore element distance, pharmacophore element CA3: 0
  Ligand-pharmacophore element distance, pharmacophore element CA4: 0
  Ligand-pharmacophore element distance, pharmacophore element CA5: 0
  Ligand-pharmacophore element distance, pharmacophore element CA6: 0
  d(N2,C2): 1.44
  d(N2,CA2): 5.72
  d(O2,H3): 2.53
  d(O2,N2): 2.72
  a(C5, CA1, O1): 159.94
  a(CA1, O1, O2): 109.26
  a(CA1, O4, H2): 128.74
  a(O1, CA1, O4): 65.74
  a(O1, O2, H4): 91.16
  a(O1, O2, H3): 141.98
  a(O1, O2, N2): 146.00
  a(O2, N2, C2): 128.07
  a(O2, N2, CA2): 155.89
  Pharmacophore torsion angle a(C5, CA1, O1, H4): 38.04
  Pharmacophore torsion angle a(H4, O1, O2, H3): −132.87
  Pharmacophore torsion angle a(H4, O1, O2, N2): −119.25
  Pharmacophore torsion angle a(O1, H4, O2, CA1): −57.88
  Pharmacophore torsion angle a(O1, O2, N2, C2): 127.17
  Pharmacophore torsion angle a(O1, O2, N2, CA2): 137.47
[1]
  d(CA1,C5): 3.12
  d(CA1,O1): 4.69
  d(CA1,O2): 4.62
  d(CA1,O4): 2.75
  d(H4,O1): 2.19
  d(H4,O2): 2.44
  d(O1,O2): 3.25
  d(O4,H2): 0.97

## C[C@H](NC(=O)[C@H]1C[C@@H](c2ccccc2)CCN1)C(=O)NCc1cc(Cl)ccc1O.Cl [1078_3]
  Ligand-pharmacophore element distance, pharmacophore element C2: 0.43
  Ligand-pharmacophore element distance, pharmacophore element C3: 0
  Ligand-pharmacophore element distance, pharmacophore element C4: 0
  Ligand-pharmacophore element distance, pharmacophore element C5: 0.45
  Ligand-pharmacophore element distance, pharmacophore element C6: 0
  Ligand-pharmacophore element distance, pharmacophore element C7: 0
  Ligand-pharmacophore element distance, pharmacophore element CA1: 1.53
  Ligand-pharmacophore element distance, pharmacophore element CA2: 0.27
  Ligand-pharmacophore element distance, pharmacophore element CA3: 0
  Ligand-pharmacophore element distance, pharmacophore element CA4: 0
  Ligand-pharmacophore element distance, pharmacophore element CA5: 0
  Ligand-pharmacophore element distance, pharmacophore element CA6: 0
  d(N2,C2): 1.45
  d(N2,CA2): 5.70
  d(O2,H3): 2.05
  d(O2,N2): 2.79
  a(C5, CA1, O1): 162.08
  a(CA1, O1, O2): 112.44
  a(CA1, O4, H2): 128.44
  a(O1, CA1, O4): 67.41
  a(O1, O2, H4): 124.44
  a(O1, O2, H3): 132.07
  a(O1, O2, N2): 145.54
  a(O2, N2, C2): 126.01
  a(O2, N2, CA2): 154.83
  Pharmacophore torsion angle a(C5, CA1, O1, H4): −5.62
  Pharmacophore torsion angle a(H4, O1, O2, H3): −160.53
  Pharmacophore torsion angle a(H4, O1, O2, N2): −166.69
  Pharmacophore torsion angle a(O1, H4, O2, CA1): −82.33
  Pharmacophore torsion angle a(O1, O2, N2, C2): 132.95
  Pharmacophore torsion angle a(O1, O2, N2, CA2): 140.71
[1]
  d(CA1,C5): 3.13
  d(CA1,O1): 4.44
  d(CA1,O2): 4.54
  d(CA1,O4): 2.75
  d(H4,O1): 3.13
  d(H4,O2): 3.61
  d(O1,O2): 3.17
  d(O4,H2): 0.98
